ChEMBL document CHEMBL1781890, “Inhibition of Myosin ATPase activity by halogenated pseudilins: a structure-activity study” (J Med Chem, 2011)

Columns and labels:
[1] = Inhibition of Dictyostelium discoideum myosin 2 motor domain-activated ATPase activity by spectrophotometry based PK/LDH coupled ATPase assay
[2] = molecular target: Unconventional myosin-Va (Gallus gallus, UniProt Q02440); assay: Inhibition of chicken myosin 5a assessed as ATP hydrolysis
[3] = Inhibition of Dictyostelium discoideum myosin 1b ATPase activity by spectrophotometric analysis

Chain of Unconventional myosin-Va (Q02440 whole entry): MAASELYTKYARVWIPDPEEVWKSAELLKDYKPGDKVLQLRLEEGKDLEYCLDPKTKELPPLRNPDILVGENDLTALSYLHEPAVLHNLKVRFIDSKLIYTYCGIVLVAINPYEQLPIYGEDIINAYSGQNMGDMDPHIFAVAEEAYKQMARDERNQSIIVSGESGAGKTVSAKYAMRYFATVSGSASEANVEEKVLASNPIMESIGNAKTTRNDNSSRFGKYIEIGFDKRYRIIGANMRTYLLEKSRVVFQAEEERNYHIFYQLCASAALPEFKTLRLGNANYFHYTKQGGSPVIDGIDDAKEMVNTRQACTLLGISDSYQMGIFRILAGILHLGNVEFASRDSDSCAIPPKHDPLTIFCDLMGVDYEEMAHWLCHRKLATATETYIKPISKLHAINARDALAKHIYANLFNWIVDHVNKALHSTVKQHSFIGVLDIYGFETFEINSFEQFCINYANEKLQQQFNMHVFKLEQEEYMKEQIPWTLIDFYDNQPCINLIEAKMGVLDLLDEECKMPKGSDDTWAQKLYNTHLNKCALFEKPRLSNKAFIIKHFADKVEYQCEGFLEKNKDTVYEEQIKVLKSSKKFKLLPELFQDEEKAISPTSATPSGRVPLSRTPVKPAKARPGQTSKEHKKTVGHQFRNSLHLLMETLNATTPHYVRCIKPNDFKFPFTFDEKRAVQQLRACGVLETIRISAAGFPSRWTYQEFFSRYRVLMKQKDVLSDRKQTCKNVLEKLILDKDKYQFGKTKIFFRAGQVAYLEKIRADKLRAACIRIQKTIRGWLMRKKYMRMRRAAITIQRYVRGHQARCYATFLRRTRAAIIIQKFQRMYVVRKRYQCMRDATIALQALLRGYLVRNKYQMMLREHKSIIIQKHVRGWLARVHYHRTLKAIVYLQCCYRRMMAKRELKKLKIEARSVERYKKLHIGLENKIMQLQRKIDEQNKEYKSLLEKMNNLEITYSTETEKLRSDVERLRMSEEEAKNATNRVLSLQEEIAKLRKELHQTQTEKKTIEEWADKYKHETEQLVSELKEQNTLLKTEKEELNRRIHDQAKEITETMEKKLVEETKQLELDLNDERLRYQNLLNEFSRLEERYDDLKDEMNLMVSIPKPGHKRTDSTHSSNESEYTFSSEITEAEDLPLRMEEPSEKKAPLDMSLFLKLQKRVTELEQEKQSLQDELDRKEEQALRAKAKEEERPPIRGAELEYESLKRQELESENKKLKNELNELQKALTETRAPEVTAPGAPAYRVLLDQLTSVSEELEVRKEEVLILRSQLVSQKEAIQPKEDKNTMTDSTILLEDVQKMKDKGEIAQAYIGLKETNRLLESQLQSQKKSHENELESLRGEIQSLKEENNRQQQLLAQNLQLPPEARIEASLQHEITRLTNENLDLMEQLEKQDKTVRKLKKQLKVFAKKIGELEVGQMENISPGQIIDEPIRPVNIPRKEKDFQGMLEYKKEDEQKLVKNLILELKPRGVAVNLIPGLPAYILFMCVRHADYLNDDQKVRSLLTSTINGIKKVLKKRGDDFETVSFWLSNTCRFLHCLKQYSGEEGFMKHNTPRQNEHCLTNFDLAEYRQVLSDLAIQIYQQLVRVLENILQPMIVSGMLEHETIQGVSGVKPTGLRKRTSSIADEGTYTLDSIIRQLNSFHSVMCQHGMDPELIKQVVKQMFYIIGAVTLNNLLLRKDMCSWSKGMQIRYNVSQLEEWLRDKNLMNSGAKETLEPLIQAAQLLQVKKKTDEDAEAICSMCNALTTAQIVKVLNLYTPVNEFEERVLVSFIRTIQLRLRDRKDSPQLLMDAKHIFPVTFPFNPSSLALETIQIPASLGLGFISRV

Row | IC50 [1] | SMILES | IC50 [2] | IC50 [3]
1 | > 1000 µM | Oc1ccccc1-c1ccc[nH]1 | – | –
2 | > 1000 µM | COc1ccccc1-c1ccc[nH]1 | – | –
3 | 182 µM | COc1ccccc1-c1[nH]c(Br)c(Br)c1Br | – | –
4 | 274 µM | COc1c(Cl)cc(Cl)cc1-c1[nH]c(Cl)c(Cl)c1Cl | – | –

Second part, the compound before the results:

Row | SMILES | IC50 [1] | IC50 [2] | IC50 [3]
5 | COc1c(Br)cc(Br)cc1-c1[nH]c(Br)c(Br)c1Br | 91.9 µM | – | –
6 | Cn1c(Br)c(Br)c(Br)c1-c1cc(Br)cc(Br)c1O | 125 µM | – | –
7 | Oc1c(Br)cc(Br)cc1-c1[nH]c(Br)c(Br)c1Br [PENTABROMOPSEUDILIN] | 24.4 µM | 1.2 µM | –
8 | Oc1c(Cl)cc(Cl)cc1-c1[nH]c(Cl)c(Cl)c1Cl [PENTACHLOROPSEUDILIN] | 126 µM | – | 1 µM
